Several values for one entry are separate records, joined by “and”; a condition that tells them apart may be missing. Equal values may be shown once.
Test system: Human peripheral blood mononuclear cells (PBMCs)
Test: Generational tracking of cell proliferation by dye dilution, flow cytometry
Type: cell-based
Conditions: PBMCs stained with 10 mM stock at 1 μL per mL of cells, 20 min; stimulated with Interleukin-2 and CD3/CD28 DYNABEADS; 355 nm laser, 450/50 bandpass emission filter
Procedure: 20 mL whole blood were added to 20 mL DPBS and mixed well. 15 mL FICOLL-PAQUE® PLUS (GE Healthcare) were added to each of two 50 mL centrifuge tubes. 20 mL of the diluted whole blood was carefully layered on top. The tube containing the whole blood was centrifuged for 30 min at 400×g and the peripheral blood mononuclear cell (PBMC) layer was carefully removed. The cells were resuspended in 25 mL DPBS in a 50 mL centrifuge tube and centrifuged for 5 min at 400×g. The supernatant was decanted and the cells were resuspended in 10 mL DPBS. Cells were counted on a COUNTESS Automated Cell Counter (Thermo Fisher Scientific) with the concentration adjusted to 1×10^6 cells/mL in DPBS.
20 μL anhydrous DMSO was added to a vial of dry Compound 1 (64 μg) at room temperature. 1 mL of unstained cells was reserved as a control. Cells were labeled with 1 μL of 10 mM Compound 1, per milliliter of cell suspension. The tubes were immediately vortexed for 30 sec and the cells were incubated for 20 min at room temperature, protected from light. […]
2 mL of each sample were removed by first mixing sample with a pipet then transferring them to their own tubes. […] Cells were counted on a COUNTESS Automated Cell Counter with the concentration adjusted to 1×10^6 cells/mL in DPBS. […]

COc1ccc2cc(C(=O)ON3C(=O)CCC3=O)c(=O)oc2c1 [Compound 1]
time over which cell proliferation was followed (discrete peaks of successive generations of live, CD4 positive cells): 7 days and 6 days

— patent US20180196033A1, “CELL TRACKING REAGENTS AND THEIR METHODS OF USE” (LIFE TECHNOLOGIES CORPORATION, priority 2015, published 2018)
